According to patent publication US20030181527A1, “Novel formulations of alpha-2,4-disulfophenyl-n-tert-butylnitrone” (priority 2000, published 2003):

Assays:
Assay in all cases: Antimicrobial efficacy (European Pharmacopoeia 2000, Chapter 5.1.3)
Format in all cases: cell-based
Bur. cepacia = tested on: Bur. cepacia
Description: (§1) The antimicrobial efficacy was tested for three different solutions:
(§2) i) α-(2,4-disulfophenyl)-N-tert-butylnitrone disodium salt, 10 mg/ml;
(§3) ii) α-(2,4-disulfophenyl)-N-tert-butylnitrone disodium salt, 400 mg/ml; and
(§4) iii) a carbonate buffer control.
(§5) The tests were performed according to European Pharmacopoeia 2000, Chapter 5.1.3, pages 259 to 260. Seven 10 ml vials were inoculated, one per test organism. During the tests, the vials were stored at controlled room temperature and protected from light. At different time intervals, samples were withdrawn and after appropriate dilutions the numbers of viable microorganisms (colony forming units per ml, CFU/ml) were determined using standard plate count procedures.

C. albicans = tested on: C. albicans
Description: as §1, §2, §3, §4, §5

Ps. aeruginosa = tested on: Ps. aeruginosa
Description: as §1, §2, §3, §4, §5

CC(C)(C)[N+]([O-])=Cc1ccc(S(=O)(=O)[O-])cc1S(=O)(=O)[O-].[Na+].[Na+] [α-(2,4-disulfophenyl)-N-tert-butylnitrone disodium salt]
Number of CFUs per ml - Time after Inoculation (Bur. cepacia; 10 mg/ml, 7 days): <1 CFUs per ml
Number of CFUs per ml - Time after Inoculation (Bur. cepacia; 10 mg/ml, 14 days): <1 CFUs per ml
Number of CFUs per ml - Time after Inoculation (Bur. cepacia; 10 mg/ml, 21 days): <1 CFUs per ml
Number of CFUs per ml - Time after Inoculation (Bur. cepacia; 10 mg/ml, 28 days): <1 CFUs per ml
Number of CFUs per ml - Time after Inoculation (Bur. cepacia; 10 mg/ml, <1 min): 3.5 × 10^5 CFUs per ml
Number of CFUs per ml - Time after Inoculation (Bur. cepacia; 400 mg/ml, 6 h): 8.7 × 10^1 CFUs per ml
Number of CFUs per ml - Time after Inoculation (Bur. cepacia; 400 mg/ml, 24 h): <1 CFUs per ml
Number of CFUs per ml - Time after Inoculation (Bur. cepacia; 400 mg/ml, 48 h): <1 CFUs per ml
Number of CFUs per ml - Time after Inoculation (Bur. cepacia; 400 mg/ml, 7 days): <1 CFUs per ml
Number of CFUs per ml - Time after Inoculation (Bur. cepacia; 400 mg/ml, 14 days): <1 CFUs per ml
Number of CFUs per ml - Time after Inoculation (Bur. cepacia; 400 mg/ml, 21 days): <1 CFUs per ml
Number of CFUs per ml - Time after Inoculation (Bur. cepacia; 400 mg/ml, 28 days): <1 CFUs per ml
Number of CFUs per ml - Time after Inoculation (Bur. cepacia; 400 mg/ml, <1 min): 1.1 × 10^5 CFUs per ml
Reduction in colony forming units per ml (CFU/ml) (Bur. cepacia; 400 mg/ml, within 6 hours): ≥ 10^3 fold
Number of CFUs per ml - Time after Inoculation (C. albicans; 10 mg/ml, 6 h): 7.0 × 10^5 CFUs per ml
Number of CFUs per ml - Time after Inoculation (C. albicans; 10 mg/ml, 24 h): 6.5 × 10^5 CFUs per ml
Number of CFUs per ml - Time after Inoculation (C. albicans; 10 mg/ml, 48 h): 6.5 × 10^5 CFUs per ml
Number of CFUs per ml - Time after Inoculation (C. albicans; 10 mg/ml, 7 days): <10 CFUs per ml
Number of CFUs per ml - Time after Inoculation (C. albicans; 10 mg/ml, 14 days): <1 CFUs per ml
Number of CFUs per ml - Time after Inoculation (C. albicans; 10 mg/ml, 21 days): <1 CFUs per ml
Number of CFUs per ml - Time after Inoculation (C. albicans; 10 mg/ml, 28 days): <1 CFUs per ml
Number of CFUs per ml - Time after Inoculation (C. albicans; 10 mg/ml, <1 min): 6.5 × 10^5 CFUs per ml
Number of CFUs per ml - Time after Inoculation (C. albicans; 400 mg/ml, 6 h): 3.1 × 10^4 CFUs per ml
Number of CFUs per ml - Time after Inoculation (C. albicans; 400 mg/ml, 24 h): 6.1 × 10^3 CFUs per ml
Number of CFUs per ml - Time after Inoculation (C. albicans; 400 mg/ml, 48 h): <1 CFUs per ml
Number of CFUs per ml - Time after Inoculation (C. albicans; 400 mg/ml, 7 days): <1 CFUs per ml
Number of CFUs per ml - Time after Inoculation (C. albicans; 400 mg/ml, 14 days): <1 CFUs per ml
Number of CFUs per ml - Time after Inoculation (C. albicans; 400 mg/ml, 21 days): <1 CFUs per ml
Number of CFUs per ml - Time after Inoculation (C. albicans; 400 mg/ml, 28 days): <1 CFUs per ml
Number of CFUs per ml - Time after Inoculation (C. albicans; 400 mg/ml, <1 min): 1.6 × 10^5 CFUs per ml
Number of CFUs per ml - Time after Inoculation (Ps. aeruginosa; 10 mg/ml, 6 h): 4.0 × 10^4 CFUs per ml
Number of CFUs per ml - Time after Inoculation (Ps. aeruginosa; 10 mg/ml, 24 h): 4.0 × 10^2 CFUs per ml
Number of CFUs per ml - Time after Inoculation (Ps. aeruginosa; 10 mg/ml, 48 h): 3.5 × 10^2 CFUs per ml
Number of CFUs per ml - Time after Inoculation (Ps. aeruginosa; 10 mg/ml, 7 days): ≦10 CFUs per ml
Number of CFUs per ml - Time after Inoculation (Ps. aeruginosa; 10 mg/ml, 14 days): <1 CFUs per ml
Number of CFUs per ml - Time after Inoculation (Ps. aeruginosa; 10 mg/ml, 21 days): <1 CFUs per ml
Number of CFUs per ml - Time after Inoculation (Ps. aeruginosa; 10 mg/ml, 28 days): <1 CFUs per ml
Number of CFUs per ml - Time after Inoculation (Ps. aeruginosa; 10 mg/ml, <1 min): 1.5 × 10^6 CFUs per ml
Number of CFUs per ml - Time after Inoculation (Ps. aeruginosa; 400 mg/ml, 6 h): 1.4 × 10^1 CFUs per ml
Number of CFUs per ml - Time after Inoculation (Ps. aeruginosa; 400 mg/ml, 24 h): <1 CFUs per ml
Number of CFUs per ml - Time after Inoculation (Ps. aeruginosa; 400 mg/ml, 48 h): <1 CFUs per ml
Number of CFUs per ml - Time after Inoculation (Ps. aeruginosa; 400 mg/ml, 7 days): <1 CFUs per ml
Number of CFUs per ml - Time after Inoculation (Ps. aeruginosa; 400 mg/ml, 14 days): <1 CFUs per ml
Number of CFUs per ml - Time after Inoculation (Ps. aeruginosa; 400 mg/ml, 21 days): <1 CFUs per ml
Number of CFUs per ml - Time after Inoculation (Ps. aeruginosa; 400 mg/ml, 28 days): <1 CFUs per ml
Number of CFUs per ml - Time after Inoculation (Ps. aeruginosa; 400 mg/ml, <1 min): 1.1 × 10^4 CFUs per ml
Reduction in colony forming units per ml (CFU/ml) (Ps. aeruginosa; 400 mg/ml, within 6 hours): ≥ 10^3 fold
